# Measurements from patent US7049323B2, “Amidoheterocycles as modulators of the melanocortin-4 receptor” (Bristol-Myers Squibb Company, priority 2003, dated 2006).
# Molecular target: T1, cloned human MC4R receptors (Homo sapiens, UniProt P32245)
# T1 construct: expressed in transfected cells; host or cells: Hi5 insect cells or HEK-293 cells (baculovirus/human MC4R receptor construct); membranes
# Assay: Melanocortin MC4R membrane binding assay ([125I]NDP-α-MSH competition)
# Details: [125I]NDP-α-MSH 0.1 nM, membranes of Hi5 insect cells or HEK-293 cells, 90 minutes at 37° C.
# Method: Melanocortin MC4R Binding Assay. […] A membrane binding assay was used to identify competitive ligands of [^125I]NDP-α-MSH binding to cloned human MC4R receptors expressed in Hi5 insect cells or HEK-293 cells transfected by a baculovirus/human MC4R receptor construct. The membrane binding buffer was composed of 25 mM HEPES, pH 7.4, 140 mM NaCl, 1.2 mM MgCl2, 2.5 mM CaCl2, and 0.1% BSA Membrane protein (0.5 μg) and [^125I]-NDP-α-MSH (to a final concentration of 0.1 nM) were added. Competing ligands or a buffer blank were added and incubated for 90 minutes at 37° C. After filtration, the cell membranes were evaluated in a Wallac Microbeta Trilux Scintillation and Luminescence Counter (Model 1450). Dose-response cureves were fitted by […] analyses and IC50 values are calculated using ExcelFit.
# T1 sequence (P32245 whole entry): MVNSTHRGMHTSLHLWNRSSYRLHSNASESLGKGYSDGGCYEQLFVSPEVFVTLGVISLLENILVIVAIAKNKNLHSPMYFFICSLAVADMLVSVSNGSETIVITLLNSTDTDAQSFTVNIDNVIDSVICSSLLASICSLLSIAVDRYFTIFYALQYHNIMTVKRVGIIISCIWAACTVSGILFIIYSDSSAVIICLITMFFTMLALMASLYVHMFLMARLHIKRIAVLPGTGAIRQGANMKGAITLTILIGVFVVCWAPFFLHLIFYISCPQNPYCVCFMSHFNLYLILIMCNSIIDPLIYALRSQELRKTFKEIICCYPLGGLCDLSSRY
row,SMILES,IC50 [µM]
1,CCCC(=O)N(C1CCCC1)C1CN(C(=O)[C@@H](Cc2ccc(Cl)cc2)NC(=O)CCN(C)C)C1 [Example 1],0.25 to 1
2,CCCC(=O)N(C1CCCCC1)C1CN(C(=O)[C@@H](Cc2ccc(Cl)cc2)NC(=O)CCN(C)C)C1 [Example 2],< 0.25
3,CCCC(=O)N(C1CCCCCC1)C1CN(C(=O)[C@@H](Cc2ccc(Cl)cc2)NC(=O)CCN(C)C)C1 [Example 3],0.25 to 1
4,CN(C)CCC(=O)N[C@H](Cc1ccc(Cl)cc1)C(=O)N1CC(N(C2CCCCC2)S(C)(=O)=O)C1 [Example 4],0.25 to 1
5,CN(C)CCC(=O)N[C@H](Cc1ccc(Cl)cc1)C(=O)N1CC(N(C2CCCCC2)S(=O)(=O)c2ccccc2)C1 [Example 5],0.25 to 1
6,CN(C)CCC(=O)N[C@H](Cc1ccc(Cl)cc1)C(=O)N1CC(N(C(=O)c2ccno2)C2CCCCC2)C1 [Example 6],1 to 10
7,CN(C)CCC(=O)N[C@H](Cc1ccc(Cl)cc1)C(=O)N1CC(N(C(=O)C2CCC2)C2CCCCC2)C1 [Example 7],0.25 to 1
8,CN(C)CCC(=O)N[C@H](Cc1ccc(Cl)cc1)C(=O)N1CC(N(C(=O)CC2CCCC2)C2CCCCC2)C1 [Example 8],0.25 to 1
9,CN(C)CCC(=O)N[C@H](Cc1ccc(Cl)cc1)C(=O)N1CC(N(C(=O)CC(C)(C)C)C2CCCCC2)C1 [Example 9],0.25 to 1
10,CN(C)CCC(=O)N[C@H](Cc1ccc(Cl)cc1)C(=O)N1CC(N(C(=O)Cc2ccccc2)C2CCCCC2)C1 [Example 10],0.25 to 1
11,CCCCC(=O)N(C1CCCCC1)C1CN(C(=O)[C@@H](Cc2ccc(Cl)cc2)NC(=O)CCN(C)C)C1 [Example 11],0.25 to 1
12,CN(C)CCC(=O)N[C@H](Cc1ccc(Cl)cc1)C(=O)N1CC(N(C(=O)c2cc3ccccc3s2)C2CCCCC2)C1 [Example 12],0.25 to 1
13,CN(C)CCC(=O)N[C@H](Cc1ccc(Cl)cc1)C(=O)N1CC(N(C(=O)COc2ccccc2)C2CCCCC2)C1 [Example 13],1 to 10
14,CC(C)CC(=O)N(C1CCCCC1)C1CN(C(=O)[C@@H](Cc2ccc(Cl)cc2)NC(=O)CCN(C)C)C1 [Example 14],< 0.25
15,CCCCCC(=O)N(C1CCCCC1)C1CN(C(=O)[C@@H](Cc2ccc(Cl)cc2)NC(=O)CCN(C)C)C1 [Example 15],0.25 to 1
16,CN(C)CCC(=O)N[C@H](Cc1ccc(Cl)cc1)C(=O)N1CC(N(C(=O)C2CCCC2)C2CCCCC2)C1 [Example 16],< 0.25
17,O=C(N[C@H](Cc1ccc(Cl)cc1)C(=O)N1CCC(N(C(=O)c2ccno2)C2CCCCC2)C1)[C@H]1Cc2ccccc2CN1 (stereo partly shown) [Example 17],< 0.25
18,O=C(N[C@H](Cc1ccc(Cl)cc1)C(=O)N1CC[C@H](N(C(=O)c2ccno2)C2CCCCC2)C1)[C@H]1Cc2ccccc2CN1 [Example 18],< 0.25
19,O=C(N[C@H](Cc1ccc(Cl)cc1)C(=O)N1CC[C@@H](N(C(=O)c2ccno2)C2CCCCC2)C1)[C@H]1Cc2ccccc2CN1 [Example 19],0.25 to 1
20,NCCC(=O)N[C@H](Cc1ccc(Cl)cc1)C(=O)N1CC[C@H](N(C(=O)c2ccno2)C2CCCCC2)C1 [Example 22],< 0.25

row,SMILES,IC50 [µM]
1,NCCC(=O)N[C@H](Cc1ccc(Cl)cc1)C(=O)N1CC[C@@H](N(C(=O)c2ccno2)C2CCCCC2)C1 [Example 23],1 to 10
2,NCCC(=O)N[C@H](Cc1ccc(Cl)cc1)C(=O)N1CC[C@H](N(C(=O)c2ccco2)C2CCCCC2)C1 [Example 24],1 to 10
3,NCCC(=O)N[C@H](Cc1ccc(Cl)cc1)C(=O)N1CC[C@@H](N(C(=O)c2ccccc2)C2CCCCC2)C1 [Example 25],0.25 to 1
4,NCCC(=O)N[C@H](Cc1ccc(Cl)cc1)C(=O)N1CC[C@H](N(C(=O)c2ccco2)C2CCCCC2)C1 [Example 26],< 0.25
5,NCCC(=O)N[C@H](Cc1ccc(Cl)cc1)C(=O)N1CC[C@H](N(C(=O)c2ccccc2)C2CCCCC2)C1 [Example 27],< 0.25
6,NCCC(=O)N[C@H](Cc1ccc(Cl)cc1)C(=O)N1CC[C@H](N(C(=O)c2cnccn2)C2CCCCC2)C1 [Example 28],0.25 to 1
7,NCCC(=O)N[C@H](Cc1ccc(Cl)cc1)C(=O)N1CC[C@H](N(C(=O)c2ccoc2)C2CCCCC2)C1 [Example 29],< 0.25
8,CCCC(=O)N(C1CCCCC1)[C@H]1CCN(C(=O)[C@@H](Cc2ccc(Cl)cc2)NC(=O)CCN)C1 [Example 30],< 0.25
9,COCC(=O)N(C1CCCCC1)[C@H]1CCN(C(=O)[C@@H](Cc2ccc(Cl)cc2)NC(=O)CCN)C1 [Example 31],0.25 to 1
10,CC(C)(C)C(=O)N(C1CCCCC1)[C@H]1CCN(C(=O)[C@@H](Cc2ccc(Cl)cc2)NC(=O)CCN)C1 [Example 32],< 0.25
11,NCCC(=O)N[C@H](Cc1ccc(Cl)cc1)C(=O)N1CC[C@H](N(C(=O)CC2CCCC2)C2CCCCC2)C1 [Example 33],< 0.25
12,Cc1noc(C)c1C(=O)N(C1CCCCC1)[C@H]1CCN(C(=O)[C@@H](Cc2ccc(Cl)cc2)NC(=O)CCN)C1 [Example 34],< 0.25
13,CS(=O)(=O)N(C1CCCCC1)[C@H]1CCN(C(=O)[C@@H](Cc2ccc(Cl)cc2)NC(=O)[C@H]2Cc3ccccc3CN2)C1 [Example 35],< 0.25
14,CC(C)N(C(=O)c1ccco1)[C@@H]1CCN(C(=O)[C@@H](Cc2ccc(Cl)cc2)NC(=O)CCN)C1 [Example 36],1 to 10
15,CC(C)N(C(=O)c1ccco1)[C@H]1CCN(C(=O)[C@@H](Cc2ccc(Cl)cc2)NC(=O)[C@H]2Cc3ccccc3CN2)C1 [Example 38],0.25 to 1
16,CS(=O)(=O)N(C1CCCCC1)[C@H]1CCN(C(=O)[C@@H](Cc2ccc(Cl)cc2)NC(=O)CCN)C1 [Example 39],0.25 to 1
17,CS(=O)(=O)N(C1CCCCC1)[C@H]1CCN(C(=O)[C@@H](Cc2ccc(Cl)cc2)NC(=O)[C@@H]2CNCCN2)C1 [Example 40],0.25 to 1
18,CC(C)CC(=O)N(C(C)C)[C@H]1CCN(C(=O)[C@@H](Cc2ccc(Cl)cc2)NC(=O)[C@@H]2CNCCN2)C1 [Example 42],0.25 to 1
19,CC(=O)N(C1CCCCC1)[C@H]1CCN(C(=O)[C@@H](Cc2ccc(Cl)cc2)NC(=O)CCN)C1 [Example 43],1 to 10
20,NCCC(=O)N[C@H](Cc1ccc(Cl)cc1)C(=O)N1CC[C@H](N(C=O)C2CCCCC2)C1 [Example 44],1 to 10

row,SMILES,IC50 [µM]
1,CC(C)C(=O)N(C1CCCCC1)[C@H]1CCN(C(=O)[C@@H](Cc2ccc(Cl)cc2)NC(=O)CCN)C1 [Example 45],< 0.25
2,CC(C)C(=O)N(C1CCCCC1)[C@H]1CCN(C(=O)[C@@H](Cc2ccc(Cl)cc2)NC(=O)[C@@H]2CNCCN2)C1 [Example 46],< 0.25
3,CC(C)CN(C(=O)c1ccco1)[C@H]1CCN(C(=O)[C@@H](Cc2ccc(Cl)cc2)NC(=O)CCN)C1 [Example 47],1 to 10
4,CC(C)CC(=O)N(CC(C)C)[C@H]1CCN(C(=O)[C@@H](Cc2ccc(Cl)cc2)NC(=O)CCN)C1 [Example 48],1 to 10
5,CC(C)CN([C@H]1CCN(C(=O)[C@@H](Cc2ccc(Cl)cc2)NC(=O)CCN)C1)S(C)(=O)=O [Example 49],1 to 10
6,CS(=O)(=O)N(C1CCCC1)[C@H]1CCN(C(=O)[C@@H](Cc2ccc(Cl)cc2)NC(=O)CCN)C1 [Example 50],1 to 10
7,CC(C)CC(=O)N(C1CCCC1)[C@H]1CCN(C(=O)[C@@H](Cc2ccc(Cl)cc2)NC(=O)CCN)C1 [Example 51],0.25 to 1
8,NCCC(=O)N[C@H](Cc1ccc(Cl)cc1)C(=O)N1CC[C@H](N(C(=O)c2ccco2)C2CCCC2)C1 [Example 52],1 to 10
9,CC(C)N([C@H]1CCN(C(=O)[C@@H](Cc2ccc(Cl)cc2)NC(=O)CCN)C1)S(C)(=O)=O [Example 53],1 to 10
10,CC(C)N(C(=O)c1ccco1)[C@H]1CCN(C(=O)[C@@H](Cc2ccc(Cl)cc2)NC(=O)CCN(C)C)C1 [Example 55],1 to 10
11,CN(C)CCC(=O)N[C@H](Cc1ccc(Cl)cc1)C(=O)N1CC[C@H](N(C2CCCCC2)S(C)(=O)=O)C1 [Example 56],1 to 10
12,CC(=O)N(C1CCCCC1)[C@H]1CCN(C(=O)[C@@H](Cc2ccc(Cl)cc2)NC(=O)CCN(C)C)C1 [Example 58],1 to 10
13,CN(C)CCC(=O)N[C@H](Cc1ccc(Cl)cc1)C(=O)N1CC[C@H](N(C=O)C2CCCCC2)C1 [Example 59],1 to 10
14,CC(C)C(=O)N(C1CCCCC1)[C@H]1CCN(C(=O)[C@@H](Cc2ccc(Cl)cc2)NC(=O)CCN(C)C)C1 [Example 60],< 0.25
15,CC(C)CC(=O)N(C1CCCC1)[C@H]1CCN(C(=O)[C@@H](Cc2ccc(Cl)cc2)NC(=O)CCN(C)C)C1 [Example 61],1 to 10
16,CC(C)N([C@H]1CCN(C(=O)[C@@H](Cc2ccc(Cl)cc2)NC(=O)CCN(C)C)C1)S(C)(=O)=O [Example 62],1 to 10
17,CN(C)CCC(=O)N[C@H](Cc1ccc(Cl)cc1)C(=O)N1CC[C@H](N(C(=O)c2ccco2)C2CCCC2)C1 [Example 64],0.25 to 1
18,CC(C)CN(C(=O)c1ccco1)[C@H]1CCN(C(=O)[C@@H](Cc2ccc(Cl)cc2)NC(=O)CCN(C)C)C1 [Example 65],1 to 10
